Measured values from paper PMC10916382, “Repurposing screen identifies novel candidates for broad-spectrum coronavirus antivirals and druggable host targets” (Antimicrobial Agents and Chemotherapy, 2024).
Where a name gives a salt, the structure may show the parent alone. Read-outs that look alike come from different tables or passages of the source.

Assays:
[1] = system: primary human airway epithelial cells; conditions: dose range 0.15 µM to 10 µM, cellular lysates
HCoV-229E [2] = assay: microbe, parasite or virus in culture; assay type: cell-based, Homo sapiens sapiens
SARS-CoV-2 [3] = conditions: for SI (CC50/IC50): CC50 from LDH assay / IC50 from qRT-PCR
SARS-CoV-2 [4] = assay type: cell-based; conditions: dose range 0.15 µM to 10 µM, viral genome copies in apical washes and cellular lysates
SARS-CoV-2 [5] = assay: microbe, parasite or virus in culture; conditions: Severe acute respiratory syndrome coronavirus 2, Calu-3, 48 h
in vitro [6] = conditions: human
in vitro [7] = assay: in vitro
SARS-CoV-2 [8] = conditions: for outcome against confirmation criteria of the SARS-CoV-2 counter-screen (<50% infected cell, >75% total cells): single dose of 5 µM; for total cell numbers / reduction of infected cell numbers: 5 µM, relative to DMSO; for total cell numbers: DAPI; for reduction of infected cell numbers: N protein immunofluorescence
HCoV-229E [9] = assay: Twelve-step dose titration against HCoV-229E infection on Huh-7.5/F-Luc/Cas9 cells; assay type: cell-based, Homo sapiens sapiens; conditions: n = 3
Huh-7.5/F-Luc cells = conditions: for % cell viability at max. dose [5 µM]: at max. dose 5 µM
SARS-CoV-2 [10] = conditions: cited from earlier work
Calu-3 cells = conditions: LDH release, non-infected Calu-3 cells, 48 hours of drug treatment
in vitro [11] = conditions: human; remark: listed apart in the source
HCoV-229E [12] = system: HCoV-229E; set-up: method as in PMID 34446714; conditions: Huh-7.5 cells; cited from earlier work
Huh-7.5/F-Luc/Cas9 cells = conditions: twelve-step 1:3 dilutions, n = 3
[13] = Calu-3 cells, immunofluorescence imaging
[14] = Human coronavirus 229E, Huh7.5, twelve-step 1:3 dilutions
[15] = Huh-7.5 cells, dose series, maximum tested dose 5 µM
[16] = Human coronavirus 229E, Huh7.5, 48 h, read-out: IC50 against HCoV-229E

## CC/C(=C(/C#N)c1ccc(OCCN(CC)CC)cc1)c1ccc(Cl)cc1 [P-3622, Z-3-(4-chlorophenyl)-2-(4-(2-(diethylamino)ethoxy)phenyl)pent-2-enenitrile]
[1]
  cytotoxicity in HAE cells, GAPDH mRNA: well tolerated
HCoV-229E [2]; Human coronavirus 229E, Huh7.5
  IC50: 880 nM
SARS-CoV-2 [3]; Calu-3 cells
  SI (CC50/IC50): 2.09
SARS-CoV-2 [4]
  antiviral activity against SARS-CoV-2 in HAE cells: limited antiviral activity
SARS-CoV-2 [5]
  IC50: 9350 nM
  IC90: 23400 nM
In vitro [6]
  CC50: 19500 nM
In vitro [7]; Anti-SARS-CoV-2 screening on Calu-3 cells: viability [% of control], Calu-3 cells
  viability: 97.7%
SARS-CoV-2 [8]; [13]
  Anti-SARS-CoV-2 screening on Calu-3 cells: intracellular SARS-CoV-2 infection measured via immunofluorescence imaging [% of control]: 97.91 % of control
HCoV-229E [9]; [14]
  IC50: 359 nM
Huh-7.5/F-Luc cells; [15]
  CC50 (µM): greater than maximum tested dose

## CC1(C)CC[C@]2(NC(=O)C(C)(F)F)CC[C@]3(C)[C@H](C(=O)C=C4[C@@]5(C)C=C(C#N)C(=O)C(C)(C)[C@@H]5CC[C@]43C)[C@@H]2C1 [Omaveloxolone]
[1]
  cytotoxicity in HAE cells, GAPDH mRNA: maintaining high cell viability
HCoV-229E [2]; [16]
  IC50: 78 nM
SARS-CoV-2 [3]; Calu-3 cells
  SI (CC50/IC50): > 8.66
SARS-CoV-2 [4]
  antiviral activity against SARS-CoV-2 in HAE cells: inhibited SARS-CoV-2 infection at 1.25 µM and 2.5 µM
SARS-CoV-2 [5]
  IC50: 140 nM
  IC90: 2410 nM
In vitro [6]
  CC50: > 1250 nM
SARS-CoV-2 [8]; Calu-3 cells
  outcome against confirmation criteria of the SARS-CoV-2 counter-screen (<50% infected cell, >75% total cells): did not meet the inclusion criteria

## O=Cc1c2[nH]c3ccccc3c2cc2[nH]c3ccccc3c12 [FICZ, 6-formylindolo(3,2-b) carbazole]
SARS-CoV-2 [10]; Vero cells
  inhibition of SARS-CoV-2 infection: inhibited SARS-CoV-2 infection of Vero cells

## COC(=O)/C=C/C(=O)OC [DMF, dimethyl fumarate]
SARS-CoV-2 [10]
  anti-SARS-CoV-2 effects: anti-SARS-CoV-2 effects at high concentrations

## C#CCOc1ccc2c(c1)c(-c1ccc(C(C)C)cc1)nc(=O)n2Cc1ccc(Br)cc1 [AXT-914, reference compound]
[1]
  cytotoxicity in HAE cells, GAPDH mRNA: without reducing GAPDH mRNA levels
HCoV-229E [2]; HCoV 229E infection, dose series, max. dose 5 µM, read-out: IC50
  IC50: 50 nM
SARS-CoV-2 [3]
  IC50: 5650 nM
  IC90: 21800 nM
SARS-CoV-2 [3]; Calu-3 cells
  SI (CC50/IC50): > 7.08
SARS-CoV-2 [4]
  antiviral activity against SARS-CoV-2 in HAE cells: dose dependently inhibited SARS-CoV-2 infection
SARS-CoV-2 [8]; Calu-3 cells
  Anti-SARS-CoV-2 screening on Calu-3 cells: viability [% of control]: 76.99 % of control
  total cell numbers: ≥ 75%
  reduction of infected cell numbers: more than 50%
SARS-CoV-2 [8]; [13]
  Anti-SARS-CoV-2 screening on Calu-3 cells: intracellular SARS-CoV-2 infection measured via immunofluorescence imaging [% of control]: 20.74 % of control
Calu-3 cells
  CC50: > 40000 nM
Huh-7.5/F-Luc cells; [15]
  CC50 (µM): greater than maximum tested dose
Huh-7.5/F-Luc cells
  % cell viability at max. dose [5 µM]: 127.46%

## CCC(CC)COC(=O)[C@H](C)N[P@](=O)(OC[C@H]1O[C@@](C#N)(c2ccc3c(N)ncnn23)[C@H](O)[C@@H]1O)Oc1ccccc1 [Remdesivir]
[1]
  cytotoxicity in HAE cells, GAPDH mRNA: without reducing GAPDH mRNA levels
HCoV-229E [2]; Human coronavirus 229E, Huh7.5
  IC50: 20 nM
HCoV-229E [2]; [16]
  IC50: 15.7 nM
SARS-CoV-2 [3]; Calu-3 cells
  SI (CC50/IC50): > 6.76
SARS-CoV-2 [4]
  antiviral activity against SARS-CoV-2 in HAE cells: dose dependently inhibited SARS-CoV-2 infection
SARS-CoV-2 [5]
  IC50: 180 nM
  IC90: 310 nM
SARS-CoV-2 [8]; [13]
  Anti-SARS-CoV-2 screening on Calu-3 cells: intracellular SARS-CoV-2 infection measured via immunofluorescence imaging [% of control]: 1.09 % of control
HCoV-229E [9]; [14]
  IC50: 0.83 nM
Huh-7.5/F-Luc cells; [15]
  CC50 (µM): greater than maximum tested dose

## C=C(CC[C@]12O[C@H](C(=O)O)[C@@](O)(C(=O)O)[C@](C(=O)O)(O1)[C@H](OC(=O)/C=C/[C@@H](C)C[C@@H](C)CC)[C@H]2O)[C@@H](OC(C)=O)[C@H](C)Cc1ccccc1 [Zaragozic Acid A, Zaragozic acid A]
In vitro [11]
  CC50: > 100000 nM
HCoV-229E [9]; [14]
  IC50: 1930 nM

## CN1CC[C@H](c2c(O)cc(O)c3c(=O)cc(-c4ccccc4Cl)oc23)[C@H](O)C1 [Flavopiridol]
SARS-CoV-2 [3]; Calu-3 cells
  SI (CC50/IC50): 2.21
SARS-CoV-2 [4]
  antiviral activity against SARS-CoV-2 in HAE cells: the reduction in viral genome copies could not be separated from an increase in cytotoxicity
SARS-CoV-2 [5]
  IC50: 210 nM
  IC90: 520 nM
In vitro [6]
  CC50: 460 nM
SARS-CoV-2 [8]; Calu-3 cells
  total cell numbers: ≥ 75%
  reduction of infected cell numbers: more than 50%
  outcome against confirmation criteria of the SARS-CoV-2 counter-screen (<50% infected cell, >75% total cells): qualified as a hit in both imaging- and qRT-PCR-based assays

## CC1(C)CC[C@]2(C(=O)O)CC[C@]3(C)[C@H](C(=O)C=C4[C@@]5(C)C=C(C#N)C(=O)C(C)(C)[C@@H]5CC[C@]43C)[C@@H]2C1 [Bardoxolone, reference compound]
HCoV-229E [2]; Human coronavirus 229E, Huh7.5
  IC50: 40 nM
HCoV-229E [2]; [16]
  IC50: 37 nM
SARS-CoV-2 [3]; Calu-3 cells
  SI (CC50/IC50): 3.90
SARS-CoV-2 [4]
  antiviral activity against SARS-CoV-2 in HAE cells: the reduction in viral genome copies could not be separated from an increase in cytotoxicity
SARS-CoV-2 [5]
  IC50: 1890 nM
  IC90: 7030 nM
In vitro [7]
  viability at 48 h, 5 µM: 118%
SARS-CoV-2 [8]; [13]
  Anti-SARS-CoV-2 screening on Calu-3 cells: intracellular SARS-CoV-2 infection measured via immunofluorescence imaging [% of control]: 95.03 % of control
SARS-CoV-2 [8]; Calu-3 cells
  outcome against confirmation criteria of the SARS-CoV-2 counter-screen (<50% infected cell, >75% total cells): did not meet the inclusion criteria

## C=C(CC(=O)OCCCCCCCC)C(=O)O [4-OI, 4-octyl-itaconate]
SARS-CoV-2 [10]
  anti-SARS-CoV-2 effects: anti-SARS-CoV-2 effects at high concentrations

## CCc1cnn2c(NCc3ccc[n+]([O-])c3)cc(N3CCCC[C@H]3CCO)nc12 [Dinaciclib, reference compound]
SARS-CoV-2 [10]; Vero E6 and A549/ACE2 cells
  inhibition of SARS-CoV-2 infection: nanomolar efficacy
SARS-CoV-2 [3]; Calu-3 cells, screening dose 5 µM, 48 hours post-inoculation
  virus load in the culture fluid: reduced virus load
In vitro [7]
  viability at 48 h, 5 µM: 29.7%
SARS-CoV-2 [8]
  Anti-SARS-CoV-2 screening on Calu-3 cells: intracellular SARS-CoV-2 infection measured via immunofluorescence imaging [% of control]: 72.14 % of control
SARS-CoV-2 [8]; Calu-3 cells
  outcome against confirmation criteria of the SARS-CoV-2 counter-screen (<50% infected cell, >75% total cells): did not meet our stringent confirmation criteria
Huh-7.5/F-Luc cells
  CC50 (µM): greater than maximum tested dose

## Cc1ccccc1N=Nc1ccc(NC(=O)c2ccnn2C)c(C)c1 [CH223191]
SARS-CoV-2 [10]; Calu-3 and Vero cells
  effect on SARS-CoV-2 infection: decreased HCoV-229E and SARS-CoV-2 infection
HCoV-229E [12]
  effect on HCoV-229E infection: decreased HCoV-229E and SARS-CoV-2 infection

## Cc1cc(-c2nc3cc(F)ccc3s2)ccc1NC(=O)[C@@H](N)CCCCN [Phortress, reference compound]
[1]
  cytotoxicity in HAE cells, GAPDH mRNA: without reducing GAPDH mRNA levels
HCoV-229E [2]; Huh-7.5/F-Luc cells, 8-step dose series, 48 hours at 33°C, read-out: IC50 against HCoV-229E
  IC50: 230 nM
SARS-CoV-2 [3]; Calu-3 cells
  SI (CC50/IC50): 1.49
SARS-CoV-2 [3]; Calu-3 cells, viral genome copies in supernatant 48 hours post-infection
  IC90: 164000 nM
SARS-CoV-2 [3]; Calu-3 cells, viral genome copies in supernatant 48 hours post-infection, n = 3
  IC50: 13300 nM
SARS-CoV-2 [4]
  antiviral activity against SARS-CoV-2 in HAE cells: dose dependently inhibited SARS-CoV-2 infection
SARS-CoV-2 [8]; Calu-3 cells
  Anti-SARS-CoV-2 screening on Calu-3 cells: viability [% of control]: 106.32 % of control
  total cell numbers: ≥ 75%
  reduction of infected cell numbers: more than 50%
SARS-CoV-2 [8]; [13]
  Anti-SARS-CoV-2 screening on Calu-3 cells: intracellular SARS-CoV-2 infection measured via immunofluorescence imaging [% of control]: 46.05 % of control
Calu-3 cells
  CC50: 19900 nM
Huh-7.5/F-Luc cells; [15]
  CC50 (µM): greater than maximum tested dose
Huh-7.5/F-Luc cells
  % cell viability at max. dose [5 µM]: 252.77%

## F/C(COc1ccc2c(c1)[nH]c1ccccc12)=C1/CN2CCC1CC2 [YM-53601]
Huh-7.5/F-Luc/Cas9 cells
  CC50: 28100 nM
HCoV-229E [9]; twelve-step 1:3 dilutions
  IC50: 1610 nM

## COc1ccc2[nH]c([S+]([O-])Cc3ncc(C)c(OC)c3C)nc2c1 (stereo not shown) [OMP, omeprazole]
SARS-CoV-2 [10]; Vero cells
  inhibition of SARS-CoV-2 infection: inhibited SARS-CoV-2 infection of Vero cells
